Source: ChEMBL document CHEMBL1909046, “DrugMatrix in vitro pharmacology data”

Assays:
[1] = molecular target: Vascular endothelial growth factor receptor 1 (Homo sapiens, UniProt P17948); assay: biochemical; type: cell-based, HUVEC; conditions: huvec
[2] = molecular target: C-C chemokine receptor type 2 (Homo sapiens, UniProt P41597); type: cell membranes, CHO-K1, Membrane; conditions: cho-k1
[3] = molecular target: T1, Leukotriene C4 synthase (Cavia porcellus, UniProt A6XA80); type: tissue-based, Lung;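 further: enzyme inhibition assay of leukotriene C4 synthase, using LTA4 as the substrate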
T1 sequence (A6XA80 whole entry): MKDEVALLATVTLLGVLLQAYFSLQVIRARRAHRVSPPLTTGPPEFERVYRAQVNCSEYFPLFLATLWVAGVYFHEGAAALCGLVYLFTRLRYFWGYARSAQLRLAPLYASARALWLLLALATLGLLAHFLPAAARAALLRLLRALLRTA

[4] = molecular target: T2, Nitric oxide synthase, inducible (Mus musculus, UniProt P29477); design: species or system Escherichia coli;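 further: inhibition of iNOS enzyme activity measured with L-arginine as substrate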
T2 sequence (P29477 whole entry): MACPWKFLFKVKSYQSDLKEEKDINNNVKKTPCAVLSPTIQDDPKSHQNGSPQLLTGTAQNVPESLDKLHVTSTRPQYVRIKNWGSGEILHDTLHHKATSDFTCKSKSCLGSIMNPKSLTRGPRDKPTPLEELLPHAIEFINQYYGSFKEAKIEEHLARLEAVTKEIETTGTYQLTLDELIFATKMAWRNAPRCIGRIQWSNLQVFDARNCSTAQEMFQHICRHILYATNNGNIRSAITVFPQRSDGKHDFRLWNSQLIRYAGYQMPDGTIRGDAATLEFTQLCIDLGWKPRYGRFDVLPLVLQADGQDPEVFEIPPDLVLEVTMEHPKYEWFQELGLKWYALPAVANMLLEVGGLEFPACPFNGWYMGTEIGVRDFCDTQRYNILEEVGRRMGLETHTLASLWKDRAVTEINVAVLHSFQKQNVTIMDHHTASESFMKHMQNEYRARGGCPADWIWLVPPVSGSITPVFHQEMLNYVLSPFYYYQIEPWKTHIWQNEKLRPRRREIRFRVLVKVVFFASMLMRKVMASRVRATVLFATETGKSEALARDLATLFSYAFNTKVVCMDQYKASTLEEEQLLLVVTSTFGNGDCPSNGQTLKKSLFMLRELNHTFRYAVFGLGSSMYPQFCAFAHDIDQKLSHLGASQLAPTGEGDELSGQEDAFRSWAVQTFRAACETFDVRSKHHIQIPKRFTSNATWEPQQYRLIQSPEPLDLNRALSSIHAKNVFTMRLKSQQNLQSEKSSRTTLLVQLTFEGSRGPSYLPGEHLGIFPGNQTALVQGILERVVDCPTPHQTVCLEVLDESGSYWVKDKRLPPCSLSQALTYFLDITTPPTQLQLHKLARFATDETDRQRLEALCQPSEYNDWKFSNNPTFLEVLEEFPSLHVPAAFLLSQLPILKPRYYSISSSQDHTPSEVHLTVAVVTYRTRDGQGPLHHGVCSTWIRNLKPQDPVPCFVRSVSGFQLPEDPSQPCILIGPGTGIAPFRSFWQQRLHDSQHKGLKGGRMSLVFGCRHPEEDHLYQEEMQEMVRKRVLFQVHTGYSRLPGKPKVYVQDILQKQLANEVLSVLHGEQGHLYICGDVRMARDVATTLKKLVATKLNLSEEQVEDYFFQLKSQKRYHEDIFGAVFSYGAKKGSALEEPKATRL

[5] = molecular target: T3, Neutrophil elastase (Homo sapiens, UniProt P08246); type: tissue-based;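 further: inhibition of neutrophil elastase enzyme activity, measured with a p-nitroanilide-linked peptide substrate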
T3 sequence (P08246 whole entry): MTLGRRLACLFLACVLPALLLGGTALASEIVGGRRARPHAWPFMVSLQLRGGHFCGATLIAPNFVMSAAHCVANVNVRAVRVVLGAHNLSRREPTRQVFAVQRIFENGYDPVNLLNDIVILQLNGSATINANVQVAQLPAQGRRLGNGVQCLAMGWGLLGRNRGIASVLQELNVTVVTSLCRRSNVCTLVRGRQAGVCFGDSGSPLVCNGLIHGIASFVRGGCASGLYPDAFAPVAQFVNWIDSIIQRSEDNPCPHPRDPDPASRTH

[6] = molecular target: Estrogen receptor beta (Homo sapiens, UniProt Q92731); conditions: sf9
Chain of Estrogen receptor beta (Q92731 whole entry): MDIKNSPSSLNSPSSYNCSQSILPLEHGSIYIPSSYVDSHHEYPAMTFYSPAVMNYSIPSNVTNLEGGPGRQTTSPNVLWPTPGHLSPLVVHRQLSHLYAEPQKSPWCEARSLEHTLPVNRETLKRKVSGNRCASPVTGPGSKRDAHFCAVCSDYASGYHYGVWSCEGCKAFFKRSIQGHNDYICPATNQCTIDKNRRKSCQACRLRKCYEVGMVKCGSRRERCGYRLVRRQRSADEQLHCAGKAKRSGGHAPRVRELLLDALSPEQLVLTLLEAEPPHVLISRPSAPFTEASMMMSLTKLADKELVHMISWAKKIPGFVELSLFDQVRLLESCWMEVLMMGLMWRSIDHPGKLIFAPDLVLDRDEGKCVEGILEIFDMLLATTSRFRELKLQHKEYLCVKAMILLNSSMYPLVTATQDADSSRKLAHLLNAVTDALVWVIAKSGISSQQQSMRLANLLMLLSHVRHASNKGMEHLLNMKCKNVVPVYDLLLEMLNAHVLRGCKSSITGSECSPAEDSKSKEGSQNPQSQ

[7] = molecular target: T4, Glucocorticoid receptor (Homo sapiens, UniProt P04150); conditions: hela s3
T4 sequence (P04150 whole entry): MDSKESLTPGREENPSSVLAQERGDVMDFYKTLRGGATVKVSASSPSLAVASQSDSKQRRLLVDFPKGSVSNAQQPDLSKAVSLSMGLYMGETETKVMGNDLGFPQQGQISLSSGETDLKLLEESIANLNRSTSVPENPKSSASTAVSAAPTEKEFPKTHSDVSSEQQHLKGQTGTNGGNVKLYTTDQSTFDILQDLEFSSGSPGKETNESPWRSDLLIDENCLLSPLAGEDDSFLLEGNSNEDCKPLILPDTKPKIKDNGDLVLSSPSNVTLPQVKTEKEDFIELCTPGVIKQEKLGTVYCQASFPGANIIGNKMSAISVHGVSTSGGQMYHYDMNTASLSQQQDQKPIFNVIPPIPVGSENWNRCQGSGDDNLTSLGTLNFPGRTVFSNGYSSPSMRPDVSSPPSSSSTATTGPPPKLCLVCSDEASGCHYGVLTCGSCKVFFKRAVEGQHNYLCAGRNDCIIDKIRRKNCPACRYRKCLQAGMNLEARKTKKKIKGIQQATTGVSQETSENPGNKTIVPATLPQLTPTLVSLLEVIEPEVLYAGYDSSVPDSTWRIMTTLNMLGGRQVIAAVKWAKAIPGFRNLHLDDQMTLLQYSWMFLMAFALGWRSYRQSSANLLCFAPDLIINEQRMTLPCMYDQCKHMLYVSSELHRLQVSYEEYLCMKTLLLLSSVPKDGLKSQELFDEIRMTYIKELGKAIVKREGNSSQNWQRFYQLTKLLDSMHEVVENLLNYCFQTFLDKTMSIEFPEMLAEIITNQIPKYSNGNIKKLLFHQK

[8] = molecular target: Voltage-gated inwardly rectifying potassium channel KCNH2 (Homo sapiens, UniProt Q12809); conditions: hek293
Chain of Voltage-gated inwardly rectifying potassium channel KCNH2 (Q12809 whole entry): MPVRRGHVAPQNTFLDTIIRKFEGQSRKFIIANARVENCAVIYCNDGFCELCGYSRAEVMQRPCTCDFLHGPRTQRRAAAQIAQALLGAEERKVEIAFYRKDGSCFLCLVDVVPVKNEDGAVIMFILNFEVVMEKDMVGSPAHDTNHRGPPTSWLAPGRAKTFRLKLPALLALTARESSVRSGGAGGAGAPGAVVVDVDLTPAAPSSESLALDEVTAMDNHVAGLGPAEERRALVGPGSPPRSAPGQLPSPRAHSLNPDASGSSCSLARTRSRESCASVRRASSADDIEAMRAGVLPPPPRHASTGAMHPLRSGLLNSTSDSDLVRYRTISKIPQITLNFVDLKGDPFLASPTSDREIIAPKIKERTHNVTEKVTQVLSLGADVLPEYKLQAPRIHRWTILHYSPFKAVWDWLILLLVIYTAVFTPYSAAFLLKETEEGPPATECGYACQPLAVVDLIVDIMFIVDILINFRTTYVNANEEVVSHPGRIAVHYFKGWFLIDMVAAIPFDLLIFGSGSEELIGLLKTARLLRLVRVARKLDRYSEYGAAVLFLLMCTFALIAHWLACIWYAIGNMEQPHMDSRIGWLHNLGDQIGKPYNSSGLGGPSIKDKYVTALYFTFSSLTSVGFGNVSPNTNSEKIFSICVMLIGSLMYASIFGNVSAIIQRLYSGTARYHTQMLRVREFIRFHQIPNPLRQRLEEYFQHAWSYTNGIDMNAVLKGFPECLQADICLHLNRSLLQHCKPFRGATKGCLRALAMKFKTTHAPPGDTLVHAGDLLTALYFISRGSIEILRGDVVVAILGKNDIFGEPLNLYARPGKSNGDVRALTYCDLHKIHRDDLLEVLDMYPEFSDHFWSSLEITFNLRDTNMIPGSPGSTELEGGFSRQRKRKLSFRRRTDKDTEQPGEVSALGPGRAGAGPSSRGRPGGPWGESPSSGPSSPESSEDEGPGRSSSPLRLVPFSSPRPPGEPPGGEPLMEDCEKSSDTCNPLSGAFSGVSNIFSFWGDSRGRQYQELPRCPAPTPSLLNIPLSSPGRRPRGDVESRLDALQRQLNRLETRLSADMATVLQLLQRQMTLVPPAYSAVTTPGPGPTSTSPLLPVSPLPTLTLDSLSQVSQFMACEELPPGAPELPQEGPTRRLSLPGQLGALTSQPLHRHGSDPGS
Further: in other assays of this panel Not Active means under 50% inhibition at 10 µM.

Chain of Vascular endothelial growth factor receptor 1 (P17948 whole entry): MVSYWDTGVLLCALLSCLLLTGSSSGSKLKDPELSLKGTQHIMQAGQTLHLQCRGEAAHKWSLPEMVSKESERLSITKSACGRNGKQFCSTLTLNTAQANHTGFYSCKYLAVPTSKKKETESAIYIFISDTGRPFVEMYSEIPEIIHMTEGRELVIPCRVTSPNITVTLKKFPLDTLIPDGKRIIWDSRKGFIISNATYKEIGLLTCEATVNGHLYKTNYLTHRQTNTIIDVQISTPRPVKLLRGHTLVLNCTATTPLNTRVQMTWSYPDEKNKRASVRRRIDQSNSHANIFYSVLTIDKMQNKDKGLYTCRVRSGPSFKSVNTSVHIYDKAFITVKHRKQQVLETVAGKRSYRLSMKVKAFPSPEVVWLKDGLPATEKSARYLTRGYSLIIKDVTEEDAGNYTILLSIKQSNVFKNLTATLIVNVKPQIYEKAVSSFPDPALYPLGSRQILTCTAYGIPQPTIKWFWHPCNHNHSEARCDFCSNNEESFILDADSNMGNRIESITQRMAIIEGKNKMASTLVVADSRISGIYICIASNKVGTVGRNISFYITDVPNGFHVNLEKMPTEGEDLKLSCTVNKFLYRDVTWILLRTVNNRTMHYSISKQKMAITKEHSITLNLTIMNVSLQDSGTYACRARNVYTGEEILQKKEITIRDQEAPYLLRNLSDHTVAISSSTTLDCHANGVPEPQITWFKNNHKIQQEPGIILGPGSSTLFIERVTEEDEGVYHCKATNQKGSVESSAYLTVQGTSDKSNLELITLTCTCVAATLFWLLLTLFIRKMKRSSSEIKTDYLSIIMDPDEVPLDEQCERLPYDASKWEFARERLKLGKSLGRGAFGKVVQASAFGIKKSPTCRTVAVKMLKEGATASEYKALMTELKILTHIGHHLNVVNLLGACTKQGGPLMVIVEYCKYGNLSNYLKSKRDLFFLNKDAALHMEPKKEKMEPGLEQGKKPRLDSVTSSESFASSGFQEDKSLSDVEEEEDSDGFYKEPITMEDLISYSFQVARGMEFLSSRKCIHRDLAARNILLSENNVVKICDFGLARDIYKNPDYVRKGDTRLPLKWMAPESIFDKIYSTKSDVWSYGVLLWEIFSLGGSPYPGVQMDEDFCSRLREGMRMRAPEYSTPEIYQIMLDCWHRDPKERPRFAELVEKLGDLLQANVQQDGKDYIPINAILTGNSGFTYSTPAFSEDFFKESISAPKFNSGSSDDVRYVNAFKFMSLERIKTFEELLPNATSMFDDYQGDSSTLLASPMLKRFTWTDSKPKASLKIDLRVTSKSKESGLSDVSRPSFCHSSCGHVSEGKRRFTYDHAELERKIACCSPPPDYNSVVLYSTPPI
Chain of C-C chemokine receptor type 2 (P41597 whole entry): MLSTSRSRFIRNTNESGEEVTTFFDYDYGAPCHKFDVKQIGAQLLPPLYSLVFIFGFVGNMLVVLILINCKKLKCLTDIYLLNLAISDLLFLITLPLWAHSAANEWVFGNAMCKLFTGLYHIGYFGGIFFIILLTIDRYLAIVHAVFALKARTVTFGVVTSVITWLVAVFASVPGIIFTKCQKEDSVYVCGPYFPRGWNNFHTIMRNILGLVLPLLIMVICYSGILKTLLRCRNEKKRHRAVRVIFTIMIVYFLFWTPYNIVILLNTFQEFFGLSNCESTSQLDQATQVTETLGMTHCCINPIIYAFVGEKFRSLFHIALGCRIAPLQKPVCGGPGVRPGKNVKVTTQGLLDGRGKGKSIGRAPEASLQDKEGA

CCC(=O)O[C@H]1[C@H](O[C@@H]2[C@@H](C)[C@H](O[C@H]3C[C@@](C)(OC)[C@@H](O)[C@H](C)O3)[C@@H](C)C(=O)O[C@H](CC)[C@@](C)(O)[C@H](O)[C@@H](C)C(=O)[C@H](C)C[C@@]2(C)O)O[C@H](C)C[C@@H]1N(C)C [ERYTHROMYCIN PROPIONATE]
Not Active: IC50 [1] | IC50 [2] | IC50 [3] | IC50 [4] | IC50 [5] | IC50 [6] | IC50 [7] | IC50 [8] | Ki [8]

CC(=O)OCC(CCn1cnc2cnc(N)nc21)COC(C)=O [FAMCICLOVIR]
Not Active: IC50 [1] | IC50 [2] | IC50 [3] | IC50 [4] | IC50 [5] | IC50 [6] | IC50 [7] | IC50 [8] | Ki [8]

CCOC(=O)C1=C(C)NC(C)=C(C(=O)OC)C1c1cccc(Cl)c1Cl (stereo not drawn) [FELODIPINE]
Not Active: IC50 [1] | IC50 [2] | IC50 [3] | IC50 [4] | IC50 [5] | IC50 [6] | IC50 [7] | IC50 [8] | Ki [8]

CC(C(=O)O)c1ccc(-c2ccccc2)c(F)c1 (stereo not drawn) [FLURBIPROFEN]
Not Active: IC50 [1] | IC50 [2] | IC50 [3] | IC50 [4] | IC50 [5] | IC50 [6] | IC50 [7] | IC50 [8] | Ki [8]

Cc1cn[nH]c1 [FOMEPIZOLE]
Not Active: IC50 [1] | IC50 [2] | IC50 [3] | IC50 [4] | IC50 [5] | IC50 [6] | IC50 [7] | IC50 [8] | Ki [8]

C[C@H]([C@](O)(Cn1cncn1)c1ccc(F)cc1F)S(C)(=O)=O [GENACONAZOLE]
Not Active: IC50 [1] | IC50 [2] | IC50 [3] | IC50 [4] | IC50 [5] | IC50 [6] | IC50 [7] | IC50 [8] | Ki [8]

Cc1c(F)c(N2CCNC(C)C2)cc2c1c(=O)c(C(=O)O)cn2C1CC1 (stereo not drawn) [GREPAFLOXACIN]
Not Active: IC50 [1] | IC50 [2] | IC50 [3] | IC50 [4] | IC50 [5] | IC50 [6] | IC50 [7] | IC50 [8] | Ki [8]

Cc1cccc(Nc2ccccc2C(=O)O)c1C [MEFENAMIC ACID]
Not Active: IC50 [1] | IC50 [2] | IC50 [3] | IC50 [4] | IC50 [5] | IC50 [6] | IC50 [7] | IC50 [8] | Ki [8]

COc1ccc2cc(CCC(C)=O)ccc2c1 [NABUMETONE]
Not Active: IC50 [1] | IC50 [2] | IC50 [3] | IC50 [4] | IC50 [5] | IC50 [6] | IC50 [7] | IC50 [8] | Ki [8]

CNC(=C[N+](=O)[O-])NCCSCc1csc(CN(C)C)n1 [NIZATIDINE]
Not Active: IC50 [1] | IC50 [2] | IC50 [3] | IC50 [4] | IC50 [5] | IC50 [6] | IC50 [7] | IC50 [8] | Ki [8]

C[C@]12C/C(=C/O)C(=O)C[C@@H]1CC[C@@H]1[C@@H]2CC[C@@]2(C)[C@H]1CC[C@]2(C)O [OXYMETHOLONE]
Not Active: IC50 [1] | IC50 [2] | IC50 [3] | IC50 [4] | IC50 [5] | IC50 [6] | IC50 [7] | IC50 [8] | Ki [8]

CCCCC1C(=O)N(c2ccccc2)N(c2ccccc2)C1=O [PHENYLBUTAZONE]
Not Active: IC50 [1] | IC50 [2] | IC50 [3] | IC50 [4] | IC50 [5] | IC50 [6] | IC50 [7] | IC50 [8] | Ki [8]

Cc1cccc(Nc2cc(Cl)nc(SCC(=O)O)n2)c1C [PIRINIXIC ACID]
Not Active: IC50 [1] | IC50 [2] | IC50 [3] | IC50 [4] | IC50 [5] | IC50 [6] | IC50 [7] | IC50 [8] | Ki [8]

CC[C@H](C)C(=O)O[C@H]1C[C@H](O)C=C2C=C[C@H](C)[C@H](CC[C@@H](O)C[C@@H](O)CC(=O)O)[C@H]21 [PRAVASTATIN]
Not Active: IC50 [1] | IC50 [2] | IC50 [3] | IC50 [4] | IC50 [5] | IC50 [6] | IC50 [7] | IC50 [8] | Ki [8]

CC(C)(Sc1cc(C(C)(C)C)c(O)c(C(C)(C)C)c1)Sc1cc(C(C)(C)C)c(O)c(C(C)(C)C)c1 [PROBUCOL]
Not Active: IC50 [1] | IC50 [2] | IC50 [3] | IC50 [4] | IC50 [5] | IC50 [6] | IC50 [7] | IC50 [8] | Ki [8]

COBALT(II) ACETYLACETONATE
Not Active: IC50 [1] | Ki [1] | IC50 [2] | Ki [2] | IC50 [3] | Ki [3] | IC50 [4] | Ki [4] | IC50 [5] | Ki [5] | IC50 [6] | Ki [6] | IC50 [7] | Ki [7] | IC50 [8] | Ki [8]

INSULIN HUMAN
Not Active: IC50 [1] | Ki [1] | IC50 [2] | Ki [2] | IC50 [3] | Ki [3] | IC50 [4] | Ki [4] | IC50 [5] | Ki [5] | IC50 [6] | Ki [6] | IC50 [7] | Ki [7] | IC50 [8] | Ki [8]

POLYVINYL ALCOHOL
Not Active: IC50 [1] | Ki [1] | IC50 [2] | Ki [2] | IC50 [3] | Ki [3] | IC50 [4] | Ki [4] | IC50 [5] | Ki [5] | IC50 [6] | Ki [6] | IC50 [7] | Ki [7] | IC50 [8] | Ki [8]
